In the supplement of paper PMC10307832:

Experiments:
Test in all cases: relative viability (nuclei count vs DMSO), 5 days (fraction); higher = more cells survive
[1] = compound: Cn1cnc2c(F)c(Nc3ccc(Br)cc3Cl)c(C(=O)NOCCO)cc21 [Selumetinib] + CCNC(=O)c1noc(-c2cc(C(C)C)c(O)cc2O)c1-c1ccc(CN2CCOCC2)cc1 [Luminespib] (partner 0.01 µM)
Procedure, shortened: (§1)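 Five library-drug doses in √10 steps were combined with a fixed anchor-drug dose, or a single drug was given alone, by pin tool to lung cancer cell lines in 1536-well plates the day after seeding. Nuclei were stained and counted after 5 days. Relative viability is the nuclei count in treated wells over that in vehicle wells, taken as the median of duplicate plates.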

[2] = compound: Cn1cnc2c(F)c(Nc3ccc(Br)cc3Cl)c(C(=O)NOCCO)cc21 [Selumetinib] + C[C@]1(O)C[C@@H](c2nc(-c3ccc4ccc(-c5ccccc5)nc4c3)c3c(N)nccn32)C1 [Linsitinib] (partner 1 µM)
Procedure, shortened: as §1

[3] = compound: Cn1cnc2c(F)c(Nc3ccc(Br)cc3Cl)c(C(=O)NOCCO)cc21 [Selumetinib] + COc1cc2c(Oc3ccc(NC(=O)C4(C(=O)Nc5ccc(F)cc5)CC4)cc3F)ccnc2cc1OCCCN1CCOCC1 [Foretinib] (partner 0.25 µM)
Procedure, shortened: as §1

[4] = compound: Cn1cnc2c(F)c(Nc3ccc(Br)cc3Cl)c(C(=O)NOCCO)cc21 [Selumetinib] + CS(=O)(=O)N1CCN(Cc2cc3nc(-c4cccc5[nH]ncc45)nc(N4CCOCC4)c3s2)CC1 [Pictilisib] (partner 1 µM)
Procedure, shortened: as §1

[5] = compound: Cn1cnc2c(F)c(Nc3ccc(Br)cc3Cl)c(C(=O)NOCCO)cc21 [Selumetinib] + C[C@@H](Oc1cc(-c2cnn(C3CCNCC3)c2)cnc1N)c1c(Cl)ccc(F)c1Cl [Crizotinib] (partner 1 µM)
Procedure, shortened: as §1

## UMC-11
[1]; first compound 0.02 µM
  relative viability: 1.14
[1]; first compound 0.06325 µM
  relative viability: 0.869
[1]; first compound 0.2 µM
  relative viability: 1.08
[1]; first compound 0.6325 µM
  relative viability: 0.967
[2]; first compound 0.02 µM
  relative viability: 0.965
[2]; first compound 0.06325 µM
  relative viability: 1.08
[2]; first compound 0.2 µM
  relative viability: 0.972
[2]; first compound 0.6325 µM
  relative viability: 0.984
[3]; first compound 0.02 µM
  relative viability: 1.05
[3]; first compound 0.06325 µM
  relative viability: 1.11
[3]; first compound 0.2 µM
  relative viability: 1.05
[3]; first compound 0.6325 µM
  relative viability: 1.04
[4]; first compound 0.02 µM
  relative viability: 0.827
[4]; first compound 0.06325 µM
  relative viability: 0.772
[4]; first compound 0.2 µM
  relative viability: 0.869
[4]; first compound 0.6325 µM
  relative viability: 0.922
[5]; first compound 0.02 µM
  relative viability: 0.686
[5]; first compound 0.06325 µM
  relative viability: 0.594
[5]; first compound 0.2 µM
  relative viability: 0.515
[5]; first compound 0.6325 µM
  relative viability: 0.645
